Results as given in ChEMBL document CHEMBL1122381, “Synthesis and antitumor activity of 7- and 9-(6'-deoxy-alpha-L-talofuranosyl) hypoxanthine and 9-(6'-deoxy-alpha-L-talofuranosyl)-6-thiopurine” (1983).
Calls of active or inactive are those of the source. The rule behind the calls is not given here.

What was measured:
L1210 [1] = assay: Antitumor activity against L1210 tumor cells tested in vivo; NA means inactive.; format: functional, organism-based; settings: Mus musculus
[2] = molecular target: T1, Purine nucleoside phosphorylase (Bos taurus) (UniProt P55859); assay: Antitumor activity by inhibiting purine nucleoside phosphorylase (PNPase) enzyme; NA means inactive.
T1 sequence (whole entry): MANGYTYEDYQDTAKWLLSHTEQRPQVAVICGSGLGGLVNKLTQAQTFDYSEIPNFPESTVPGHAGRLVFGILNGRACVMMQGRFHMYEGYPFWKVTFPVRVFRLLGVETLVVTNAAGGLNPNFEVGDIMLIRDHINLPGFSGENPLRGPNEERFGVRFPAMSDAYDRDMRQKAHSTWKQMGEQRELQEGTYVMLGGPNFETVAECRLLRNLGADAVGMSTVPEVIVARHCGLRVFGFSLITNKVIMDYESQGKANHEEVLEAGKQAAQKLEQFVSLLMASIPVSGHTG

L1210 [3] = assay: Antitumor activity against L1210 tumor cells in vivo and the value is expressed as T / C ([…]) at a dose of 10000 ug/kg; format: functional, Mus musculus
L1210 [4] = assay: Antitumor activity against L1210 tumor cell growth in vitro and the value is expressed as % inhibition at a dose of 1 ug/mL; format: functional; settings: Mus musculus

inhibition [2] | Compound | T/C (L1210 [1]) | T/C (L1210 [3]) | inhibition at 1 µg/mL (L1210 [4]) [%]
– | CC(O)[C@H]1O[C@@H](n2cnc3ncnc(O)c32)[C@H](O)[C@@H]1O (stereo not given in full) | inactive | – | –
inactive | CC(O)[C@H]1O[C@@H](n2cnc3c(O)ncnc32)[C@H](O)[C@@H]1O (stereo not given in full) | – | – | –
inactive | CC(O)[C@H]1O[C@@H](n2cnc3c(S)ncnc32)[C@H](O)[C@@H]1O (stereo not given in full) | – | 146 | 50
